Measurements reported in patent US5646146A, “Heterocyclic compounds and their preparation and use” (Novo Nordisk A/S, priority 1993, dated 1997).

Tests used:
[1] = system: glycine site coupled to the NMDA ionophore complex; conditions: literature citations; cited from earlier work
[2] = target: T1, glycine site of the NMDA receptor complex (Rattus norvegicus, UniProt P35439); assay: In vitro [3H]-glycine binding to rat brain membranes (Test 1); set-up: species or system rat (male Wistar); conditions: 50% displacement of specific [3H]-glycine binding; 50 nM [3H]-glycine, 4° C., 30 min
T1 construct: Crude synaptic (P2) membranes are prepared from rat forebrains; from tissue; host or cells: rat forebrain (male Wistar), crude synaptic (P2) membranes, Triton X-100 washed
Method: The compounds according to the invention were tested as regards the affinity for one or more of the different types of excitatory amino acid receptors and studied in simple radioligand binding experiments. In essence, the method involves incubation of a particular selected radio-labelled ligand and the particular specific substance to be investigated with brain homogenates which contain the receptor. Measurement of receptor occupancy is made by determination of the specific radioactivity bound to the homogenate.
This will make them useful in the treatment of any of the numerous indications caused by hyperactivity of excitatory amino acids.
The glycine site binding activity of these compounds of the present invention can be illustrated by determining their capability for displacing radioactively labelled glycine from the glycine site.
The displacement activity of the compounds may be shown by determining the IC50 value which represents the concentration (μM) which causes a displacement of 50% of the specific binding of [^3 H]-glycine.
In vitro [^3 H]-Glycine Binding to Rat Brain Membranes (Test 1)
The membrane preparation and assay of specific [^3 H]-glycine binding is based upon methodology described by Haring et al. (1991) J. Neurochem. 57, 323-332 and Yoneda et al. (1991) J. Neurochem. 55, 237-244.
All steps are performed at 4° C. Buffers are prepared fresh each week from distilled, deionized water and filtered through sterile 0.2 μm membranes to eliminate artifacts due to microbial contamination. Crude synaptic (P2) membranes are prepared from rat forebrains freshly dissected from male Wistar rats and washed 4 times with low ionic strength buffer. On the day of the assay these preparations are additionally washed with buffer containing a low concentration (0.08% g/g) of Triton X-100, and then twice more in the absence of this detergent. The procedure is aimed at the disruption of synaptic membrane vesicles and removal of endogenous amino acids.
Specific radioligand binding is measured by incubating membranes (400-600 μg/ml of protein) with 50 nM [^3 H]-glycine in the presence or absence of 1 mM of unlabelled glycine at 4° C. for 30 min. Free and bound ligand are separated by centrifugation. Each pellet is rinsed 2× and bound radioactivity measured by liquid scintillation counting. Test substances are substituted for Unlabelled glycine in the assay.

[3] = system: convulsions induced by i.c.v. infusion of NMDA; assay: Convulsions induced by i.c.v. infusion of NMDA, TV50 (Test 2); format: in vivo, mouse (male NMRI); conditions: dose infused i.c.v. per minute with NMDA to increase time to onset of clonic seizures by 50%
Method: The glycine antagonists are co-infused with NMDA and their anti-convulsive effect is measured by determining a) the TV50 value which represents the dose (μg/kg) of the glycine antagonist that has to be infused per minute in order to increase time to onset of clonic seizures by 50%, b) the ED50 value which represents the dose (μg/kg) of the glycine antagonist that has to be infused per minute in order to protect 50% of the animals against clonic seizures for 150 seconds after the start of i.c.v. infusion.
Convulsions induced by i.c.v. infusion of NMDA (Test 2 & 3)
58.84 μg/ml (1 nmol in 2.5 μl) of NMDA (Sigma) dissolved in 0.9% NaCl is co-infused i.c.v. with a glycine antagonist at a speed of 5 μl/min. Infusion is performed through a cannula placed 1 mm posterior and 1 mm lateral to the Bregma point. The cannula is injected 4.3 mm into the skull of male NMRI mice weighing 25 g (range 23-27 g). Placement and length of the cannula into the skull is fixed by a plate positioned 4.3 mm from the point of the cannula. The infusion is stopped after the appearance of clonic seizures in all extremities or 150 seconds after the start time of the infusion. At least 5 doses of each glycine antagonist are tested using 8 mice per dose.

IC50 [2] [nM]	Structure (SMILES)	activity at the glycine site (agonist/antagonist, in words) [1]	Test 2 TV50 [3] [µg/kg]
	N#Cc1cc2[nH]c(=O)c(=O)[nH]c2cc1[N+](=O)[O-] [CNQX, 6-cyano-7-nitroquinoxaline-2,3-dione]	weak antagonists	
	C[C@@H](N)C(=O)O [D-alanine]	strong agonist activity	
	N[C@@H]1CONC1=O [D-cycloserine]	partial agonists	
	N[C@H](CO)C(=O)O [D-serine]	strong agonist activity	
920	O=C1c2ccccc2-c2[nH]c(=O)c(=O)[nH]c21 [Example 2, 9H-Indeno[1,2-b]pyrazine-2,3,9(1H,4H)-trione]		44
3700	O=c1cnc2c([nH]1)-c1ccccc1C21OCCO1 [Example 6, 9H-Indeno[1,2-b]pyrazine-3,9(4H)-dione 9-ethylene acetal]		
	O=C(O)c1cc(O)c2ccc(Cl)cc2n1 [Example 7-Cl-Kyn, 7-chloro-kynurenic acid]	quite strong antagonists	
920	O=c1[nH]c2c([nH]c1=O)C(O)c1ccccc1-2 (stereo not shown) [Example 11, 9-Hydroxy-9H-indeno[1,2-b]pyrazine-2,3(1H,4H) -dione]		5.0
150	CN1CCN(C2c3ccccc3-c3[nH]c(=O)c(=O)[nH]c32)CC1 (stereo not shown) [Example 18, 9-(4-Methyl-1-piperazinyl)-9H-indeno[1,2-b]pyrazine-2,3(1H,4H)-dione]		4.5
	NC1CCN(O)C1=O (stereo not shown) [HA-966, 3-amino-1-hydroxy-2-pyrrolidone]	weak antagonists	
